Experimental data: patent US20040241755A1, “Human cell assay to determine effect of sample compounds on Col2 enhancer expression” (Pfizer Inc., priority 2003, published 2004)

Legend:
Type in all cases: cell-based, human
48 bp Col2a1 enhancer = 48 bp Col2a1 enhancer luciferase reporter transfection assay in SW1353 cells; settings: for relief of cytokine mediated inhibition of enhancer expression by co-treatment: co-treatment with TNFα or IL-1β, SW1353 cells; for reduction of enhancer driven luciferase expression: 10 ng/ml; for effect on Sox9 activity / responsiveness of SW1353 cells transfected with the 48 bp Col2a1 enhancer: concentration not given, data not shown
Method: Reagents were obtained from Invitrogen unless otherwise noted. SW1353 human chondrosarcoma cells (ATCC #HTB-94) were grown in DMEM 10% FBS 10 ug/ml Gentamicin and passaged (2 times a week) using with 0.25% Trypsin-EDTA.
Cells were plated at ˜10^6 cells per flask into a T-75 in 10 ml growth media or an equivalent based on culture vessel surface area, 24 hours prior to transfection. For each transfection, 24 ul of Transit (PanVera) was diluted into 250 ul OptiMEM and 12 ug of reporter plasmid Col2a1 enhancer construct (48 bp Col2a1, was added. After 15-30 minute incubation, growth media was removed from the cells, and the DNA-transfection reagent complexes diluted to a final volume of 10 ml with OptiMEM and added to the cells. Transfection media was replaced with fresh media after 7 hours. 24 hours post transfection the cells were treated with media alone or indicated factors. Cells were harvested 48 hours post-transfection and luciferase activity measured using the LucLite and the TopCount LSC plate reader (Packard).
We analyzed the activity of the 48 bp Col2a1 enhancer construct (48 bp Col2a1) in transfected SW1353 cells. SW1353 cells were transfected with a constant amount of reporter (0.25 ug), with or without increasing amounts of the Sox9 expression construct or empty vector.

Sox9 mRNA = Sox9 mRNA expression in SW1353 cells by real time quantitative PCR (TaqMan); settings: 48 hours, relative to GAPDH
Method: RNA was prepared from 75 cm dishes using RNeasy Kits with DNAse treatment (Qiagen) according to the manufacturer's protocol except a second application of DNase was used. cDNA was prepared from 10-20 ul of RNA (1-4 ug) using random hexamer primers and PE Biosystems Reverse Transcription reagents. Taqman reactions used 8 ul cDNA and 2× PE Universal PCR Master Mix (PE Biosystems), 900 nM PCR primers and 200 nM FAM-TAMRA probe. Reactions (50 ul) were cycled and quantified using the PE 5700 with standard conditions for 45 cycles. The data was analyzed using GeneAmp5700 software Mix (PE Biosystems), adjusting the threshold to linear range for all samples. The ΔCt is calculated by subtracting normalizer (GAPDH) from corresponding gene-specific values. The ΔΔCt is calculated by subtracting treated ΔCt from control ΔCt. Fold induction is determined by calculating 2^ΔΔCt. Data is reported as % increase over control sample.
The effect of chondrocyte growth factors as well as inhibitory cytokines on the expression of Sox9 RNA in SW1353 cells using real time quantitative PCR (TaqMan, P E Applied Biosystems) was determined. Cells were cultured and treated with growth factors or cytokines as described above. After 48 hours cells were harvested and RNA prepared. A custom Sox9 primer probe set was validated by an efficiency plot over several logs and relative Sox 9 expression was quantified relative to GAPDH.

matrix metalloproteases = experiment: Stimulation of matrix metalloprotease expression in SW1353 cells; settings: data not shown
IL-8 = experiment: Induction of IL-8 expression in SW1353 cells; settings: for stimulation of expression of IL-8: 10 ng/ml
Method: SW1353 cells were transfected with the 48 bp Col2a1 reporter and then treated with vehicle, TNFα (10 ng/ml) or IL-1β (10 ng/ml) (FIG. 2A).
The effect of increasing IL-1β doses on the two response was determined. […] Therefore, SW1353 cells appear to respond to a dynamic range of IL-1β levels with selective functional responses, making them potentially useful in models of both osteoarthritis and rheumatoid diseases.

## FGF-2: pro-chondrogenic fibroblast growth factor
48 bp Col2a1 enhancer
  relief of cytokine mediated inhibition of enhancer expression by co-treatment: partially relieved
Sox9 mRNA
  increase in expression of Sox9 mRNA: approximately 1.5 fold

## FGF-1: pro-chondrogenic fibroblast growth factor
48 bp Col2a1 enhancer
  relief of cytokine mediated inhibition of enhancer expression by co-treatment: partially relieved
Sox9 mRNA
  increase in expression of Sox9 mRNA: ~2 fold

## IL-1β: pro-inflammatory cytokine
Matrix metalloproteases
  stimulation of expression of matrix metalloproteases: stimulate
IL-8
  stimulation of expression of IL-8: stimulate
IL-8; IL-1 concentrations below 20 pg/ml
  induction of IL-8: not detected
48 bp Col2a1 enhancer; transfected SW1353 cells
  reduction of enhancer driven luciferase expression: ~50%
  concentration giving maximal inhibition (repression) of Col2 enhancer activity: 20 pg/mL
48 bp Col2a1 enhancer; 0.1-1 pg/ml, transfected SW1353 cells
  stimulation of Col2 enhancer activity at very low levels: about 150%
Sox9 mRNA
  decrease in Sox9 expression: 60%

## PTHrP: parathyroid hormone-related peptide
48 bp Col2a1 enhancer
  effect on Sox9 activity / responsiveness of SW1353 cells transfected with the 48 bp Col2a1 enhancer: not seen an effect

## TNFα
Matrix metalloproteases
  stimulation of expression of matrix metalloproteases: stimulate
IL-8
  stimulation of expression of IL-8: stimulate
48 bp Col2a1 enhancer; transfected SW1353 cells
  reduction of enhancer driven luciferase expression: approximately 60%
Sox9 mRNA
  decrease in Sox9 expression: 45%

## TGFα: growth factor to which SW1353 cells appear unresponsive
48 bp Col2a1 enhancer
  effect on Sox9 activity / responsiveness of SW1353 cells transfected with the 48 bp Col2a1 enhancer: unresponsive

B1: BMP-6: BMP growth factor (protein, UniProt P22004 375-513, looked up)
Bone morphogenetic protein 6: SASSRRRQQSRNRSTQSQDVARVSSASDYNSSELKTACRKHELYVSFQDLGWQDWIIAPKGYAANYCDGECSFPLNAHMNATNHAIVQTLVHLMNPEYVPKPCCAPTKLNAISVLYFDDNSNVILKKYRNMVVRACGCH
48 bp Col2a1 enhancer
  effect on Sox9 activity / responsiveness of SW1353 cells transfected with the 48 bp Col2a1 enhancer: unresponsive

B2: FGF-7: fibroblast growth factor which signals exclusively through the epithelial-cell restricted FGFRIIIb receptor (protein, UniProt P21781 32-194, looked up)
Fibroblast growth factor 7: CNDMTPEQMATNVNCSSPERHTRSYDYMEGGDIRVRRLFCRTQWYLRIDKRGKVKGTQEMKNNYNIMEIRTVAVGIVAIKGVESEFYLAMNKEGKLYAKKECNEDCNFKELILENHYNTYASAKWTHNGGEMFVALNQKGIPVRGKKTKKEQKTAHFLPMAIT
48 bp Col2a1 enhancer; 200 ng/ml added to transfected SW1353 cultures
  increase in expression of the 48 bp Col2a1 enhancer: no effect

B3: BMP-4: BMP growth factor (protein, UniProt P12644 293-408, looked up)
Bone morphogenetic protein 4: SPKHHSQRARKKNKNCRRHSLYVDFSDVGWNDWIVAPPGYQAFYCHGDCPFPLADHLNSTNHAIVQTLVNSVNSSIPKACCVPTELSAISMLYLDEYDKVVLKNYQEMVVEGCGCR
48 bp Col2a1 enhancer
  effect on Sox9 activity / responsiveness of SW1353 cells transfected with the 48 bp Col2a1 enhancer: unresponsive
